From patent US4737518A, “Lipid derivatives, their production and use” (Takeda Chemical Industries, Ltd., priority 1984, dated 1988)
Counter-ions that a name gives are not always drawn.

Columns and labels:
[1] = test system: rabbit platelet aggregation by PAF; assay: Inhibitory activity on rabbit platelet aggregation by PAF; assay type: cell-based; settings: Oryctolagus cuniculus, PAF 1×10^-8 M, read-out: rate of inhibition of rabbit platelet aggregation by PAF; for inhibition at 1 µM: test drug 1 × 10^-6 M; for inhibition at 30 µM: test drug 3 × 10^-5 M; for inhibition at 3 µM: test drug 3 × 10^-6 M; for inhibition at 0.3 µM: test drug 3 × 10^-7 M
PAF-induced death = assay: Prevention activity against PAF-induced death in mice; assay type: in vivo, mouse (male Jc1-ICR); settings: for (Mice survived)/(mice employed): PAF 50 μg/kg i.v., control 3/16
Procedure: Prevention activity against PAF-induced death in mice
The test drug was investigated for the preventive activity against shock death to be brought about within 30 min. after 50 μg/kg of PAF in the form of 0.1 ml/kg physiological saline solution was given intravenously to a male Jc1-ICR mouse. The test drug was administered intravenously 5 min. before the injection of PAF.
In accordance with the same procedure as described in Experiment Example 2, the test compounds were investigated for the preventive activity against PAF-induced death in mice.

PAF-induced hypotension = assay: Restoring activity against PAF-induced hypotension; assay type: in vivo, rat (male S.D.); settings: 3 min after PAF 1 μg/kg i.v., 1 min after test drug
Procedure: Restoring activity against PAF-induced hypotension
Male S.D. rats, aged 16 weeks, were employed.
Under anesthesia with pentobarbital, cannulas were inserted into the femoral artery and vein of rats for measurement of blood pressure and for administration of a drug, respectively. Three (3) minutes after intravenous administration of 1 μg/kg (0.25% BAS physiological saline solution; volume of 0.2 ml/kg) of PAF, a test drug (physiological saline solution; volume of 0.5 ml/kg) was administered intravenously, and blood pressure was measured for subsequent 1 hour.
The ratio of hypertension by the test drug to hypotension by PAF was taken as a restoration rate.
Restoration rate (%)=[(Blood pressure just before i.v. administration of a test drug)-(Blood pressure 1 min. after i.v. administration of a test drug)/(Blood pressure just before i.v. administration of PAF)-(Blood pressure just before i.v. administration of a test drug)]×100

HL-60 cells = assay: Effect on inducing differentiation of HL-60 cells (NBT-positive cells); assay type: cell-based, human; settings: 6 days; for Emax: Homo sapiens, HL-60, 144 h, at optimal conc., NBT-positive relative to live cells, read-out: Maximum differentiation extent: Differentiation
Procedure: Assay of the effects on inducing differentiation of HL-60 cells (human promyelocytic leukemia cells) and Neuro-2a cells (mouse neuroblastoma cells): RPMI-1640 medium (Flow Laboratories, Inc.) supplemented with 20% fetal calf serum (M.A. […] The culture was incubated at 37° C. in a 5% CO2 incubator for 6 days. […] The reaction was allowed to proceed at 37° C. for 20 minutes. The reaction was stopped by cooling with ice, and the cells were washed by means of centrifugation, followed by collecting 3-5×10^4 cells and by subjecting to centrifugation using Cytospin centrifuge to prepare a cell smear, which was fixed with methanol and stained with Kernechtrot solution. On each cell smear, the percentage of NBT-positive cells relative to live cells, […] by examination of a minimum of 200 cells, was expressed as the differentiation extent.

[2] = Table 4, 1.0 mg/kg i.v., control 24%
[3] = Table 4, 0.3 mg/kg i.v., control 24%

Structure (SMILES) | inhibition at 30 µM [1] [%] | inhibition at 3 µM [1] [%] | Restoration rate (PAF-induced hypotension; 0.5 mg/kg i.v.) [%] | Survival rate (PAF-induced death; [2]) [%] | inhibition at 0.3 µM [1] [%] | Maximum differentiation extent: Optimal conc. (HL-60 cells) [µg/mL] | Emax (HL-60 cells) [%] | other results
CCCCCCCCCCCCCCCCCCOCC(COC(=O)N(CC[N+](C)(C)C)C(C)=O)OC(C)=O (centres unmarked) [Example 3, 2-O-Acetyl-3-O-[N-acetyl-N-(2'-trimethylammonioethyl)]carbamoyl-1-O-octadecylglycerol iodide] | 100 | 100 | 48 | – | – | – | – | inhibition at 1 µM [1]: 86%; Survival rate (PAF-induced death; 0.1 mg/kg i.v. 5 min before PAF 50 μg/kg i.v., control 19%): 38%; (Mice survived)/(mice employed) (PAF-induced death; 0.1 mg/kg i.v.): 3/8; Survival rate (PAF-induced death; 1.0 mg/kg i.v. 5 min before PAF 50 μg/kg i.v., control 19%): 100%; (Mice survived)/(mice employed) (PAF-induced death; 1.0 mg/kg i.v.): 8/8; prevention of PAF-induced death (conclusion) (PAF-induced death; 0.1 and 1 mg/kg i.v.): potent drug for prevention of PAF-induced death
CCCCCCCCCCCCCCCCCCNC(=O)OCC(COC(=O)N(CC[N+](C)(C)C)C(C)=O)OC (centres unmarked) [Example 25, 3-O-[N-Acetyl-N-(2'-trimethylammonioethyl)]carbamoyl-2-O-methyl-1-O-octadecylcarbamoylglycerol iodide] | 100 | 100 | – | 94 | – | – | – | inhibition at 1 µM [1]: 40%; Restoration rate (PAF-induced hypotension; 1.0 mg/kg i.v.): 69%
CCCCCCCCCCCCCCCCCCNC(=O)OCC(COC(=O)N(CC[N+]1(C)CCCC1)C(C)=O)OC (centres unmarked) [Example 35, 3-O-[N-Acetyl-N-(2'-N-methylpyrrolidinioethyl)]carbamoyl-2-O-methyl-1-O-octadecylcarbamoylglycerol hydrochloride] | 100 | 100 | 73 | 80 | 45 | – | – | –
CCCCCCCCCCCCCCCCCCNC(=O)OCC(COC(=O)N(CC[N+]1(C)CCCC1)C(=O)OC)OC (centres unmarked) [Example 43, 3-O-[N-Methoxycarbonyl-N-(2'-N-methylpyrrolidinioethyl)]carbamoyl-2-O-methyl-1-O-octadecylcarbamoylglycerol iodide] | 100 | 100 | 83 | 100 | – | – | – | –
CCCCCCCCCCCCCCCCCCNC(=O)OCC(COC(=O)N(CC1CCC[N+]1(C)CC)C(C)=O)OC (centres unmarked) [Example 45, 3-O-[N-Acetyl-N-(1'-ethyl-1'-methylpyrrolidinio-2'-yl)methyl]carbamoyl-2-O-methyl-1-O-octadecylcarbamoylglycerol iodide] | 100 | 100 | – | 100 | 41 | 0.48 | 72 | Survival rate (PAF-induced death; [3]): 77%
CCCCCCCCCCCCCCCCCCOCC(CN1CC(=O)N(CC[N+](C)(C)C)C1=O)OC(C)=O (centres unmarked) [Example 91, 1-[1-(2-Acetoxy-3-ocatadecyloxy)propyl]-3-(2-trimethylammonioethyl)hydantoin chloride.] | 100 | 100 | 77 | 100 | 78 | – | – | –
CCCCCCCCCCCCCCCCCCOCC(CN1CC(=O)N(CC[n+]2ccsc2)C1=O)OC(C)=O (centres unmarked) [Example 92, 1-[1-(2-Acetoxy-3-octadecyloxy)propyl]-3-(2-thiazolioethyl)hydantoin chloride] | 100 | 100 | 77 | 100 | – | – | – | Survival rate (PAF-induced death; [3]): 77%
CCCCCCCCCCCCCCCCCCNC(=O)OCC(COC(=O)N(Cc1cccc[n+]1C)C(C)=O)OC (centres unmarked) [Example 104, 3-O-[N-Acetyl-N-(N-methylpyridnio-2-yl)methyl]carbamoyl-2-O-methyl-1-O-octadecylcarbamoylglycerol chloride] | 100 | 100 | – | – | 100 | – | – | Restoration rate (PAF-induced hypotension; 0.1 mg/kg i.v.): 94%
CCCCCCCCCCCCCCCCCCNC(=O)OCC(CN1CC(=O)N(CC[N+](C)(C)C)C1=O)OC (centres unmarked) [Example 115, 1-[(2-Methoxy-3-octadecylcarbamoyloxy)propyl]-3-[2-(trimethylammonio)ethyl]hydantoin chloride] | 100 | 100 | – | – | 9 | 1.25 | 61 | –
CCCCCCCCCCCCCCCCNC(=O)OCC(COC(=O)N(Cc1cccc[n+]1CC)C(C)=O)OC (centres unmarked) [Example 169, 3-[N-Acetyl-N-(N'-ethylpyridinio-2-yl)methyl]carbamoyl-1-hexadecylcarbamoyl-2-methylglycerol chloride] | 100 | 100 | – | – | 100 | 0.32 | 59 | –
CCCCCCCCCCCCCCNC(=O)OCC(COC(=O)N(Cc1cccc[n+]1CC)C(C)=O)OC (centres unmarked) [Example 170, 3-[N-Acetyl-N-(N'-ethylpyridinio-2-yl)methyl]carbamoyl-2-methyl-1-tetradecylcarbamoylglycerol chloride] | 100 | 100 | – | – | 100 | 0.32 | 77 | –
